Source: US8314143B2, “Synthetic flavonoids and pharmaceutical compositions and therapeutic methods of treatment of HIV infection and other pathologies” (Florida A&M University, priority 2006, dated 2012)
“And” between values parts separate entries of the source, which are not always exact repeats. Equal entries are not always repeated. “Also recorded” adds a separate entry of the source.

Tests used:
Type in all cases: cell-based
[1] = test system: PC-3 cells; test: Cytoxicity on PC-3 cells (drug inhibition, cell count); conditions: for Drug Inhibition on PC-3 cells: Table 7; for % Inhibition Mean / Cells (×10^4) Mean / % Inhibition / Cells (×10^4): Exp. Nov. 11 to Nov. 17, 2005; for % Inhibition / Cells (×10^4): single replicates
Text: The purified and identified analogs were subjected to in vitro biological testing.

[2] = test system: H-9 cells; test: Cytoxicity on H-9 cells (drug inhibition, cell count); conditions: for H-9 Mean (drug inhibition): Table 4 summary; for % Inhibition Mean / Cells (×10^4) Mean / % Inhibition / Cells (×10^4): Exp. Dec. 05 to Dec. 09, 2005; for % Inhibition / Cells (×10^4): single replicates
Text: (§1) The purified and identified analogs were subjected to in vitro biological testing. […] These three congeners were further evaluated in H9 and PC3 cells. AZT was employed as a positive control in all of these experiments.

[3] = test system: MCF-7 cells; test: Cytoxicity on MCF-7 cells (drug inhibition, cell count); set-up: Drug Inhibition on MCF-7 Cells / MCF-7 Mean (drug inhibition) / Drug inhibition on MCF-7 Cells Mean: unit not given here; conditions: MCF-7 cells; for Drug Inhibition on MCF-7 Cells: Table 8 summary; for % Inhibition Mean / Cells (×10^4) Mean / % Inhibition / Cells (×10^4): Exp. Nov. 14 to Nov. 18, 2005; for % Inhibition / Cells (×10^4): single replicates
Text: as §1

COc1ccc(C=CC(=O)c2cc(Br)cc(Br)c2O)cc1OC [CHBr 2M]
Drug Inhibition on PC-3 cells ([1]; 1 μg/ml): 47.1
% Inhibition Mean ([1]; 1 μg/ml): 27.64%
Cells (×10^4) Mean ([1]; 1 μg/ml): 70.92 ×10^4
% Inhibition ([1]; 1 μg/ml): 25.26% and 26.53% and 31.12%
Cells (×10^4) ([1]; 1 μg/ml): 73.3 ×10^4 and 72.0 ×10^4 and 67.5 ×10^4
Drug Inhibition on PC-3 cells ([1]; 5 μg/ml): 65.88
% Inhibition Mean ([1]; 5 μg/ml): 27.72%
Cells (×10^4) Mean ([1]; 5 μg/ml): 70.83 ×10^4
Cells (×10^4) ([1]; 5 μg/ml): 75.5 ×10^4 and 68.0 ×10^4 and 69.0 ×10^4
Drug Inhibition on PC-3 cells ([1]; 10 μg/ml): 78.04
% Inhibition Mean ([1]; 10 μg/ml): 26.28%
Cells (×10^4) Mean ([1]; 10 μg/ml): 72.25 ×10^4
Drug Inhibition on PC-3 cells ([1]; 50 μg/ml): 89.50
% Inhibition Mean ([1]; 50 μg/ml): 42.86%
Cells (×10^4) Mean ([1]; 50 μg/ml): 56.00 ×10^4
% Inhibition ([1]; 50 μg/ml): 41.33% and 45.92%
Cells (×10^4) ([1]; 50 μg/ml): 57.5 ×10^4 (2×) and 53.0 ×10^4
inhibitory activity compared to AZT ([1]; same conditions as AZT): much superior inhibitory activities; also recorded: as good or somewhat better
H-9 Mean (drug inhibition) ([2]; 1 μg/ml): 5.64
% Inhibition Mean ([2]; 1 μg/ml): 5.64%
Cells (×10^4) Mean ([2]; 1 μg/ml): 47.42 ×10^4
% Inhibition ([2]; 1 μg/ml): 9.45% and 1.49% and 5.97%
Cells (×10^4) ([2]; 1 μg/ml): 45.5 ×10^4 and 49.5 ×10^4 and 47.3 ×10^4
H-9 Mean (drug inhibition) ([2]; 5 μg/ml): 49.59
% Inhibition Mean ([2]; 5 μg/ml): 49.59%
Cells (×10^4) Mean ([2]; 5 μg/ml): 25.33 ×10^4
% Inhibition ([2]; 5 μg/ml): 49.25% and 50.76% and 48.76%
Cells (×10^4) ([2]; 5 μg/ml): 25.5 ×10^4 and 24.8 ×10^4 and 25.8 ×10^4
H-9 Mean (drug inhibition) ([2]; 10 μg/ml): 65.01
% Inhibition Mean ([2]; 10 μg/ml): 65.01%
Cells (×10^4) Mean ([2]; 10 μg/ml): 17.58 ×10^4
% Inhibition ([2]; 10 μg/ml): 63.68% and 67.66% and 63.88%
Cells (×10^4) ([2]; 10 μg/ml): 18.3 ×10^4 (2×) and 16.3 ×10^4
H-9 Mean (drug inhibition) ([2]; 50 μg/ml): 76.95
% Inhibition Mean ([2]; 50 μg/ml): 76.95%
Cells (×10^4) Mean ([2]; 50 μg/ml): 11.58 ×10^4
% Inhibition ([2]; 50 μg/ml): 76.62% and 77.11%
Cells (×10^4) ([2]; 50 μg/ml): 11.8 ×10^4 and 11.5 ×10^4 (2×)
inhibitory activity compared to AZT ([2]; same conditions as AZT): much superior inhibitory activities; also recorded: as good or somewhat better
response to MCF-7 cells in the different drug concentrations [3]: good activities
Drug Inhibition on MCF-7 Cells ([3]; 1 μg/ml): 15.13
% Inhibition Mean ([3]; 1 μg/ml): 15.13%
Cells (×10^4) Mean ([3]; 1 μg/ml): 49.08 ×10^4
% Inhibition ([3]; 1 μg/ml): 15.71% and 10.95% and 18.73%
Cells (×10^4) ([3]; 1 μg/ml): 48.6 ×10^4 and 51.5 ×10^4 and 47.0 ×10^4
Drug Inhibition on MCF-7 Cells ([3]; 5 μg/ml): 54.61
% Inhibition Mean ([3]; 5 μg/ml): 54.61%
Cells (×10^4) Mean ([3]; 5 μg/ml): 26.25 ×10^4
% Inhibition ([3]; 5 μg/ml): 53.31% and 56.34% and 54.18%
Cells (×10^4) ([3]; 5 μg/ml): 27.0 ×10^4 and 25.3 ×10^4 and 26.5 ×10^4
Drug Inhibition on MCF-7 Cells ([3]; 10 μg/ml): 86.31
% Inhibition Mean ([3]; 10 μg/ml): 86.31%
Cells (×10^4) Mean ([3]; 10 μg/ml): 7.92 ×10^4
% Inhibition ([3]; 10 μg/ml): 87.46% and 84.44% and 87.03%
Cells (×10^4) ([3]; 10 μg/ml): 7.3 ×10^4 and 9.0 ×10^4 and 7.5 ×10^4
Drug Inhibition on MCF-7 Cells ([3]; 50 μg/ml): 98.709
% Inhibition Mean ([3]; 50 μg/ml): 98.70%
Cells (×10^4) Mean ([3]; 50 μg/ml): 0.75 ×10^4
% Inhibition ([3]; 50 μg/ml): 98.70% and 98.27% and 99.14%
Cells (×10^4) ([3]; 50 μg/ml): 0.8 ×10^4 and 1.0 ×10^4 and 0.5 ×10^4
inhibitory activity compared to AZT ([3]; same conditions as AZT): much superior inhibitory activities; also recorded: as good or somewhat better

COc1ccc(C=CC(=O)c2cc(C)cc([N+](=O)[O-])c2O)cc1OC [CHNM 2M]
Drug Inhibition on PC-3 cells ([1]; 1 μg/ml): 27.9
% Inhibition Mean ([1]; 1 μg/ml): 9.10%
Cells (×10^4) Mean ([1]; 1 μg/ml): 89.08 ×10^4
% Inhibition ([1]; 1 μg/ml): 9.69% and 17.09% and 0.51%
Cells (×10^4) ([1]; 1 μg/ml): 88.5 ×10^4 and 81.3 ×10^4 and 97.5 ×10^4
Drug Inhibition on PC-3 cells ([1]; 5 μg/ml): 39.36
% Inhibition Mean ([1]; 5 μg/ml): 36.05%
Cells (×10^4) Mean ([1]; 5 μg/ml): 62.67 ×10^4
% Inhibition ([1]; 5 μg/ml): 39.29% and 36.99% and 31.89%
Cells (×10^4) ([1]; 5 μg/ml): 59.5 ×10^4 and 61.8 ×10^4 and 66.8 ×10^4
Drug Inhibition on PC-3 cells ([1]; 10 μg/ml): 45.03
% Inhibition Mean ([1]; 10 μg/ml): 35.80%
Cells (×10^4) Mean ([1]; 10 μg/ml): 62.92 ×10^4
% Inhibition ([1]; 10 μg/ml): 36.22% and 38.52% and 32.65%
Drug Inhibition on PC-3 cells ([1]; 50 μg/ml): 59.67
% Inhibition Mean ([1]; 50 μg/ml): 48.81%
Cells (×10^4) Mean ([1]; 50 μg/ml): 50.17 ×10^4
% Inhibition ([1]; 50 μg/ml): 49.23% and 46.43% and 50.77%
H-9 Mean (drug inhibition) ([2]; 1 μg/ml): −15.75
% Inhibition Mean ([2]; 1 μg/ml): −15.75%
Cells (×10^4) Mean ([2]; 1 μg/ml): 58.17 ×10^4
% Inhibition ([2]; 1 μg/ml): −13.93% and −19.90% and −13.43%
Cells (×10^4) ([2]; 1 μg/ml): 57.3 ×10^4 and 60.3 ×10^4 and 57.0 ×10^4
H-9 Mean (drug inhibition) ([2]; 5 μg/ml): −16.58
% Inhibition Mean ([2]; 5 μg/ml): −16.58%
Cells (×10^4) Mean ([2]; 5 μg/ml): 58.58 ×10^4
% Inhibition ([2]; 5 μg/ml): −22.39% and −10.45% and −16.92%
Cells (×10^4) ([2]; 5 μg/ml): 61.5 ×10^4 and 55.5 ×10^4 and 58.8 ×10^4
H-9 Mean (drug inhibition) ([2]; 10 μg/ml): −1
% Inhibition Mean ([2]; 10 μg/ml): −1.00%
Cells (×10^4) Mean ([2]; 10 μg/ml): 50.75 ×10^4
% Inhibition ([2]; 10 μg/ml): −0.50% and −3.98% and 1.49%
Cells (×10^4) ([2]; 10 μg/ml): 50.5 ×10^4 and 52.3 ×10^4 and 49.5 ×10^4
H-9 Mean (drug inhibition) ([2]; 50 μg/ml): −11.44
% Inhibition Mean ([2]; 50 μg/ml): −11.44%
Cells (×10^4) Mean ([2]; 50 μg/ml): 56.00 ×10^4
% Inhibition ([2]; 50 μg/ml): −12.94% and −8.96% and −12.44%
Cells (×10^4) ([2]; 50 μg/ml): 56.8 ×10^4 and 54.8 ×10^4 and 56.5 ×10^4
Drug Inhibition on MCF-7 Cells ([3]; 1 μg/ml): 6.77
% Inhibition Mean ([3]; 1 μg/ml): 6.77%
Cells (×10^4) Mean ([3]; 1 μg/ml): 53.92 ×10^4
% Inhibition ([3]; 1 μg/ml): 8.36% and 4.47% and 7.49%
Cells (×10^4) ([3]; 1 μg/ml): 53.0 ×10^4 and 55.3 ×10^4 and 53.5 ×10^4
Drug Inhibition on MCF-7 Cells ([3]; 5 μg/ml): 20.17
% Inhibition Mean ([3]; 5 μg/ml): 20.17%
Cells (×10^4) Mean ([3]; 5 μg/ml): 46.17 ×10^4
% Inhibition ([3]; 5 μg/ml): 21.33% and 22.19% and 17.00%
Cells (×10^4) ([3]; 5 μg/ml): 45.5 ×10^4 and 45.0 ×10^4 and 48.0 ×10^4
Drug Inhibition on MCF-7 Cells ([3]; 10 μg/ml): 31.27
% Inhibition Mean ([3]; 10 μg/ml): 31.27%
Cells (×10^4) Mean ([3]; 10 μg/ml): 39.75 ×10^4
% Inhibition ([3]; 10 μg/ml): 29.97% and 32.56% and 31.27%
Cells (×10^4) ([3]; 10 μg/ml): 40.5 ×10^4 and 39.0 ×10^4 and 39.8 ×10^4
Drug Inhibition on MCF-7 Cells ([3]; 50 μg/ml): 42.07
% Inhibition Mean ([3]; 50 μg/ml): 42.07%
Cells (×10^4) Mean ([3]; 50 μg/ml): 33.50 ×10^4
% Inhibition ([3]; 50 μg/ml): 43.80% and 40.35% and 42.07%
Cells (×10^4) ([3]; 50 μg/ml): 32.5 ×10^4 and 34.5 ×10^4 and 33.5 ×10^4
